Experiments:
[1] = tested on: Pyricularia oryzae (rice blast); assay: whole plant or invertebrate; type: in vivo; settings: Pyricularia oryzae, foliar, read-out: PYRIOR disease control, host rice; foliar spray; 400 ppm (+++: 100 ppm)
[2] = tested on: Plasmopara viticola (downy mildew); assay: Foliar spray fungicide test, Plasmopara viticola (downy mildew) on grape; settings: for pest or weed control at 400 µg/mL: Plasmopara viticola, foliar, read-out: PLASVI disease control; for PLASVI disease control: host grape, foliar spray, 400 ppm (+++: 100 ppm)
Description: (§3) The test compounds were formulated for application by dissolving 50 mg of the compound into 1.25 ml of solvent. The solvent was prepared by mixing 50 ml of "Tween 20" (polyoxyethylene (20) sorbitan monolaurate emulsifier) with 475 ml of acetone and 475 ml of ethanol. The solvent/compound solution was diluted to 125 ml with deionized water. The resulting formulation contains 400 ppm test chemical. Lower concentrations were obtained by serial dilution with the solvent-surfactant mixture.
(§4) The formulated test compounds were applied by foliar spray.
(§5) The formulated technical compounds were sprayed on all foliar surfaces of the host plants to past run-off. Single pots of each host plant were placed on raised, revolving pedestals in a fume hood. Test solutions were sprayed on all foliar surfaces. All treatments were allowed to dry and the plants were inoculated with the appropriate pathogens within 24 hours.
(§6) The effectiveness of test compounds in controlling disease was rated using the following scale.

[3] = tested on: Leptosphaeria nodorum (glume blotch); assay: Foliar spray fungicide test, Leptosphaeria nodorum (glume blotch) on wheat; settings: Parastagonospora nodorum, in Triticum aestivum, foliar, read-out: LETPNO disease control, host wheat, 400 ppm (+++: 100 ppm)
Description: as §3, §4, §5, §6

[4] = tested on: Puccinia recondita tritici (leaf rust); assay: Foliar spray fungicide test, Puccinia recondita tritici (leaf rust) on wheat; settings: Puccinia recondita, in Triticum aestivum, foliar, read-out: PUCCRT disease control, host wheat, 400 ppm (+++: 100 ppm)
Description: as §3
(§7) The formulated test compounds were applied by foliar spray. The following plant pathogens and their corresponding plants were employed.
Puccinia recondita PUCCRT wheat
as §5, §6

[5] = tested on: Erysiphe graminis tritici (powdery mildew); assay: Foliar spray fungicide test, Erysiphe graminis tritici (powdery mildew) on wheat; settings: Blumeria graminis, in Triticum aestivum, foliar, read-out: ERYSGT disease control, host wheat, 400 ppm (+++: 100 ppm)
Description: as §3, §7, §5, §6

[6] = tested on: aster leafhopper (Macrosteles fascifrons); assay: whole plant or invertebrate; type: in vivo; settings: Macrosteles fascifrons, 24 h, 400 ppm, read-out: ALH percent mortality
Description: (§1) The compounds identified in Table I were tested for miticidal and insecticidal activity against eight species. The following abbreviations are used in the Table III:
ALH refers to aster leafhopper
(§2) In conducting evaluations of insecticidal activity, each test compound was formulated as a 400 ppm solution, and this solution was then diluted with water to give lesser concentrations. The 400 ppm solution was prepared by combining 19.2 mL of 0.05% solution of Tween 20 (polyoxyethylene (20) sorbitan monolaurate) in water with a solution of 8 mg of the compound in 0.8 mL of acetone/EtOH (9/1).
Activity against aster leafhopper (Macrosteles fascifrons) was tested as follows. The test was run using concentrations of 400 ppm and 50 ppm. One ounce plastic cups containing a cotton wick was sprayed with 0.4 mL of formulated material using a flat-fan nozzle. The excess moisture was allowed to evaporate. Then five to ten carbon dioxide anesthetized adult leafhoppers were added to each cup. The cups were capped and held at room temperature for 24 hours. Percent mortality was then determined.

[7] = tested on: beet armyworm (Spodoptera exiqua); assay: Activity against beet armyworm; type: in vivo; settings: Spodoptera, 144 h, 400 ppm; 6 days; read-out: BAW activity (rated on live and dead larvae and size of live larvae)
Description: as §1
BAW refers to beet armyworm
as §2
Activity against beet armyworm (Spodoptera exiqua) was evaluated as follows. The test is run using concentrations of 400 ppm and 50 ppm. A general purpose lepidoptera artificial diet was diluted to half strength with a 5% non nutritive agar. 8 mL of this diet material was dispensed into one ounce diet cups. One hour prior to treatment, 35 to 40 eggs were dispensed onto the diet surface. The cups were then sprayed with formulated material through a flat-fan nozzle. Treated cups were air dried prior to sealing with plastic caps. The cups were held for 6 days at room temperature. Activity was then rated based on the total number of live and dead larvae, and on the size of live larvae.

[8] = tested on: tobacco budworm (Heliothis virescens); assay: Activity against tobacco budworm; type: in vivo; settings: Heliothis virescens, 144 h, 400 ppm; 6 days; read-out: TBW activity (rated on live and dead larvae and size of live larvae)
Description: as §1
TBW refers to tobacco budworm
as §2
Activity against tobacco budworm (Heliothis virescens) was evaluated as follows. A general purpose lepidoptera artificial diet was diluted to half strength with a 5% non nutritive agar. 8 mL of this diet material was dispensed into each one ounce diet cup. One hour prior to treatment 18 to 20 eggs were dispensed onto the diet surface. The cups were then sprayed with formulated material through a flat-fan nozzle. The test was run using concentrations of 400 ppm and 50 ppm. Treated cups were air dried prior to sealing with plastic caps. The cups were held for 6 days at room temperature. Activity was then rated based on the total number of live and dead larvae, and on the size of live larvae.

[9] = tested on: cotton aphid (Aphis gossypii); assay: whole plant or invertebrate; settings: 72 h, read-out: CA activity (percent based on aphids present in plants sprayed with solvent alone), 400 ppm, squash plants, three days after treatment
[10] = tested on: two spotted spider mite (Tetranychus urticae); assay: whole plant or invertebrate; settings: 72 h, read-out: TSSM activity (percent based on mites present in plants sprayed with solvent alone), 400 ppm, squash plants, three days after treatment

Row | SMILES | pest or weed control at 400 µg/mL [1] | pest or weed control at 400 µg/mL [2] | pest or weed control at 400 µg/mL [3] | pest or weed control at 400 µg/mL [4] | pest or weed control at 400 µg/mL [5] | mortality at 400 ppm [6] | pest or weed control at 400 ppm [7] | pest or weed control at 400 ppm [8] | mortality at 400 ppm [9] | mortality at 400 ppm [10] | PLASVI disease control [2]
1 | FC(F)(F)c1ccc(Oc2ccc(CCNc3ncnc4ncccc34)cc2)nc1 [Compound 31] | 20 to 89% | 90 to 100% | 20 to 89% | 90 to 100% | 20 to 89% | – | – | – | – | – | –
2 | FC(F)(F)c1ccc(Oc2ccc(CCOc3ncnc4ncccc34)cc2)nc1 [Compound 30] | 90 to 100% | 90 to 100% | 0 to 19% | 90 to 100% | 90 to 100% | – | – | – | – | – | –
3 | Fc1cccc2c(NCCc3ccc(Oc4cccc(C(F)(F)F)n4)cc3)ncnc12 [Compound 37] | 20 to 89% | 90 to 100% | 90 to 100% | 90 to 100% | 90 to 100% | – | – | – | – | – | –
4 | N#Cc1cccnc1Oc1ccc(CCOc2ncnc3cccc(F)c23)cc1 [Compound 4] | 0 to 19% | 20 to 89% | 0 to 19% | 0 to 19% | 20 to 89% | – | – | – | – | – | –
5 | Fc1cccc2c(OCCc3ccc(Oc4cccc(C(F)(F)F)n4)cc3)ncnc12 [Compound 36] | 90 to 100% | 90 to 100% | 20 to 89% | 90 to 100% | 90 to 100% | – | – | – | – | – | –
6 | Fc1cccc2c(OCCc3ccc(Oc4ncccc4C(F)(F)F)cc3)ncnc12 [Compound 10] | 90 to 100% | 90 to 100% | 90 to 100% | 90 to 100% | 90 to 100% | – | – | – | – | – | –
7 | FC(F)(F)c1ccnc(Oc2ccc(CCOc3ncnc4ccccc34)cc2)c1 [Compound 13] | 20 to 89% | 90 to 100% | 90 to 100% | 90 to 100% | 90 to 100% | 100% | 100% | 100% | 100% | 100% | –
8 | Fc1cccc2c(OCCc3ccc(Oc4ncc(Cl)cc4Cl)cc3)ncnc12 [Compound 41] | 90 to 100% | – | 20 to 89% | 90 to 100% | 90 to 100% | 100% | 100% | 100% | 100% | 100% | ++ +
9 | Clc1cnc(Oc2ccc(CCOc3ncnc4ccccc34)cc2)nc1 [Compound 47] | 20 to 89% | 20 to 89% | 0 to 19% | – | 90 to 100% | – | – | – | – | – | –
10 | Fc1cccc2c(OCCc3ccc(Oc4ccc(Cl)cn4)cc3)ncnc12 [Compound 17] | 90 to 100% | 90 to 100% | 20 to 89% | 90 to 100% | 90 to 100% | – | – | – | – | – | –
11 | Fc1cccc2c(NCCc3ccc(Oc4cccc(C(F)(F)F)n4)cc3)ccnc12 [Compound 40, 8-Fluoro-4-(2-(4-(6-(trifluoromethyl)-2-pyridinyloxy)phenyl)ethylamino)quinoline] | 20 to 89% | 90 to 100% | 20 to 89% | 90 to 100% | 90 to 100% | – | – | – | – | – | –
12 | Fc1cccc2c(NCCc3ccc(Oc4cc(C(F)(F)F)ccn4)cc3)ncnc12 [Compound 14] | 90 to 100% | 90 to 100% | 20 to 89% | 90 to 100% | 90 to 100% | – | – | – | – | – | –
13 | FC(F)(F)c1cnc(Oc2ccc(CCNc3ncnc4cccnc34)cc2)c(Cl)c1 [Compound 2] | 90 to 100% | 90 to 100% | 20 to 89% | 90 to 100% | 90 to 100% | – | – | – | – | – | –
14 | O=[N+]([O-])c1ccc(Oc2ccc(CCNc3ncnc4c(F)cccc34)cc2)nc1 [Compound 24] | 20 to 89% | 90 to 100% | 20 to 89% | 20 to 89% | 0 to 19% | – | – | – | – | – | –
15 | Brc1cnc(Oc2ccc(CCOc3ncnc4ccccc34)cc2)nc1 [Compound 46] | 0 to 19% | 0 to 19% | 20 to 89% | 20 to 89% | 20 to 89% | – | – | – | – | – | –
16 | N#Cc1cccnc1Oc1ccc(CCOc2ncnc3c(F)cccc23)cc1 [Compound 3] | 20 to 89% | 90 to 100% | 20 to 89% | 20 to 89% | 20 to 89% | – | – | – | – | – | –
17 | Fc1cccc2c(NCCc3ccc(Oc4ncccc4C(F)(F)F)cc3)ncnc12 [Compound 11] | 90 to 100% | – | 90 to 100% | 90 to 100% | 90 to 100% | – | – | – | – | – | + ++
18 | FC(F)(F)c1ccc(Oc2ccc(CCNc3ncnc4cccnc34)cc2)nc1 [Compound 32] | 90 to 100% | 90 to 100% | 90 to 100% | 90 to 100% | 90 to 100% | – | – | – | – | – | –
19 | O=[N+]([O-])c1cccnc1Oc1ccc(CCOc2ncnc3cccc(F)c23)cc1 [Compound 9] | 0 to 19% | 90 to 100% | 0 to 19% | 0 to 19% | 0 to 19% | – | – | – | – | – | –
20 | Clc1ccc(Oc2ccc(CCOc3ncnc4ccccc34)cc2)nn1 [Compound 49] | 0 to 19% | 90 to 100% | 0 to 19% | 20 to 89% | 20 to 89% | – | – | – | – | – | –
21 | Fc1cccc2c(OCCc3ccc(Oc4ncc(Cl)cn4)cc3)ccnc12 [Compound 48] | 0 to 19% | 20 to 89% | 0 to 19% | – | 20 to 89% | – | – | – | – | – | –
22 | Fc1cccc2c(OCCc3ccc(Oc4cccc(OCC(F)(F)F)n4)cc3)ncnc12 [Compound 33] | 20 to 89% | 90 to 100% | 0 to 19% | 90 to 100% | 90 to 100% | – | – | – | – | – | –
23 | O=[N+]([O-])c1cccnc1Oc1ccc(CCOc2ncnc3c(F)cccc23)cc1 [Compound 8] | 20 to 89% | 90 to 100% | 20 to 89% | 20 to 89% | 90 to 100% | – | – | – | – | – | –

Source: patent publication US5326766A, “4-(2-(4-(2-pyridinyloxy)phenyl)ethoxy)quinazoline and analogues thereof” (priority 1992, dated 1994)
